Measurements from patent publication US10786429B2, “Preservative removal from eye drops” (University of Florida Research Foundation, Inc., priority 2016, dated 2020).
Where a name gives a salt, the structure may show the parent alone. Marks after values point to notes of the source that are not given here.

Assays:
Assay type in all cases: physicochemical
[1] = Partition coefficient in HEMA/MAA copolymer gels of various compositions
Description: Gels of […] were synthesized using 2 mL monomer solution, 2.7 mL of water, 10 μL of ethylene glycol dimethacrylate as crosslinker, and 6 mg of Darocur TPO as a photoinitiator. The monomer solution had different fractions of HEMA and MAA (i.e. 60% MAA would be 1.2 mL MAA and 0.8 mL HEMA). Gels were cured under UV light in 100 micron thick molds and subsequently cut into pieces approximately 50 mg in mass. Some gels were loaded with BAK to give a 3× (or 300 ppm) initial concentration and placed into 3 mL solution (either 0.025% Bimatoprost/PBS 1× or 0.2% BAK/PBS). The concentrations in solution were measured using UV-vis spectrophotometry. Upon achieving equilibrium, the gels were placed in 3 mL blank PBS, and release was monitored by UV-vis spectrophotometry. Uptake and release equilibrium concentrations were used to calculate partition coefficients. FIGS. 28 and 29 are plots of the partition coefficient for Bimatoprost and BAK for various gel copolymer compositions.

[2] = Partition and adsorption into pHEMA matrix (general statement)
[3] = Langmuir adsorption isotherm fit of equilibrium interfacial surface tension of BAK solutions; details: Langmuir model fit
Description: An eye drop bottle's plug (tip) was packed with 0.1 g of p-HEMA particles for Timolol Maleate commercial formulation (Sandoz Inc.) and 0.1 g of p-HEMA/MAA particles for Bimatoprost commercial formation (Allegran Inc.). Approximately 0.5 mL of commercial formulation was dosed from the eye drop bottle for each measurement with 0.5 mL of a filtered formulation withdrawn by a standard 3 mL syringe for pendant drop measurements. A drop shape analysis was conducted by the Tensiometer to extract surface tension data of the filtered formulation. A calibration curve with equilibrium interfacial surface tension data as a function of BAK concentration was used to estimate concentrations and fractional BAK removal from the filtered eye drop formulation. Periodic surface tension measurements of the formulations were done to monitor fractional BAK removal.
The steady state Langmuir adsorption isotherm model and Langmuir surface equation of state were used to fit the equilibrium interfacial surface tension data are given below:
[formula] [formula] Where a least square error minimization protocol was used to fit the experimental equilibrium surface tension values and the calculated estimates using the above model. […] Benzalkonium Chloride Removal from Commercial Bimatoprost Formulation (Allegran Inc.)

[4] = Partition coefficient in pHEMA particles prepared using SR9035 as cross-linker; details: 100 mg particles in 3.5 mL solution, 9 days
Description: The partition coefficients of timolol, CMC and BAK in pHEMA particles prepared using SR9035 as cross-linker was measured. pHEMA particles (100 mg) were soaked in 3.5 mL of timolol, CMC and BAK solution, which concentration was 0.08 mg/mL, 0.5% and 2.4 mg/mL, respectively. After 9 days of soaking, the concentration of the drug or BAK solution was measured by using UV-Vis spectrophotometry. The drug or BAK concentration after soaking indicated the amount of drug or BAK that absorbed into the gel relative to the initial concentration. The partition coefficient of timolol and CMC in pHEMA particles is much smaller than that of BAK, and should have excellent separation efficiency.

[5] = Partition coefficient of BAK in pHEMA particles prepared by heat-initiated polymerization
[6] = Partition coefficient in macroporous pHEMA hydrogel; details: for Partition coefficient: 250 mg gel in 12 mL PBS solution, 15 days, mean ± SD, n=3
Description: As indicated above, the absorption percentage of hydrophilic drug is small, whereas a significant amount of hydrophobic drug is uptake by the macroporous pHEMA gel. The high affinity of hydrophobic drug to the gel can be determined by measuring the partition coefficient of the drug in the gel. To measure the partition coefficient, a piece of macroporous pHEMA gel of 250 mg was soaked in 12 mL of drug or BAK solution. After 15 days of soaking, the concentration of the drug or BAK solution was measured by using UV-Vis spectrophotometry. The drug or BAK concentration after soaking indicated the amount of drug or BAK in reference to the initial concentration is that absorbed into the gel. The partition coefficient of timolol and dorzolamide in macroporous pHEMA gel is roughly 15 times smaller than that of BAK, which is excellent separation efficiency. In contrast, the partition coefficients of latanoprost and BAK are pretty high and the separation efficiency of the gel for this mixture is poor.

| Compound | partitioning between gel and solution (in words) [1] | Partition coefficient [4] | partition coefficient, times smaller than that of BAK [6] | Partition coefficient [6] | further results |
| --- | --- | --- | --- | --- | --- |
| CCNC(=O)CCC/C=C\C[C@@H]1[C@@H](/C=C/[C@@H](O)CCc2ccccc2)[C@H](O)C[C@@H]1O [Bimatoprost] | tends to remain in solution | – | – | – | – |
| Benzalkonium Chloride [BAK] | strongly partitions into the gel | ~300 | – | – | adsorption time on pHEMA ([2]; compared with transit time): < 3 s; partition coefficient into pHEMA matrix ([2]; depends on BAK concentration and structure of pHEMA matrix): 100-500; maximum surface coverage Γ∞ (fit parameter) [3]: 0.003309 mol/m^2; ratio of kinetic rate constants β/α (fit parameter) [3]: 462.14 m^3/mol; Partition coefficient [5]: 200-250 |
| CC(C)(C)NC[C@H](O)COc1nsnc1N1CCOCC1 [Timolol, timolol maleate] | – | 5.59 ± 0.13^a | roughly 15 times | 6.49 | – |
| CC(C)OC(=O)CCC/C=C\C[C@@H]1[C@@H](CC[C@@H](O)CCc2ccccc2)[C@H](O)C[C@@H]1O [Latanoprost, latanoprost] | – | – | – | 90.18 | – |
| C[C@@H]1C[C@H]2[C@@H]3CCC4=CC(=O)C=C[C@]4(C)[C@@]3(F)[C@@H](O)C[C@]2(C)[C@@]1(O)C(=O)CO [Dexamethasone, dexamethasone] | – | – | – | 33.53 ± 1.31 | – |
| CCN[C@H]1C[C@H](C)S(=O)(=O)c2sc(S(N)(=O)=O)cc21 [Dorzolamide, dorzolamide hydrochloride] | – | – | roughly 15 times | 7.59 ± 0.56 | – |
